From patent US20240317760A1, “TRK KINASE INHIBITOR COMPOUND AND USE THEREOF” (HENAN MEDINNO PHARMACEUTICAL TECHNOLOGY CO., LTD., priority 2021, published 2024) come the findings set out here.

Holding throughout (type): biochemical
The target in experiment [1] is T1, TRKA (Homo sapiens, UniProt P04629).
T1 construct: purchased Carna 08-186
As to the kind of experiment: Determination of inhibitory activity against TRKA kinase (ADP-Glo Kinase Assay). The settings on record: ATP 5 μM, Poly (4:1 Glu, Tyr) Peptide 0.03 mg/ml. The procedure: (§1) Assay: Determination of Inhibitory Activity Against TRKA/B/C Kinases
(§2) 1× volume of 5× kinase reaction buffer and 4× volume of water; 5 mM MgCl2; and 1 mM DTT.
(§3) • 1). Gradiently diluting a compound 4-fold in a dilution plate with DMSO, with a starting compound concentration of 1000 nM. • 2). Diluting the compound 50-fold into 1× kinase reaction buffer and shaking it on a shaker for 20 minutes. • 3). Formulating 2× kinase with 1× of enzyme reaction buffer. • 4). Adding 2 μl kinase (formulated in step 3) to each well of the reaction plate. • 5). Adding 1 μl of the compound diluted in buffer to each well, sealing the plate with a sealing membrane and centrifuging the plate at 1000 g for 30 seconds and leaving it at room temperature for 10 minutes. • 6). Formulating 4×ATP & sub mixture with 1× enzyme reaction buffer and adding 1 μl of 4×ATP & sub mixture to the reaction plate. • 7). Sealing the plate with a sealing membrane and centrifuging the plate at 1000 g for 30 seconds and allowing it to react at room temperature for 60 minutes. • 8). Transferring 4 μl of ADP-Glo to 384 reaction plate and centrifuging the plate at 1000 rpm/min for 1 min, and then incubating it at 25° C. for 40 min. • 9). Transferring 8 μl of Detection solution to 384 reaction plate and centrifuging the plate at 1000 rpm/min for 1 min and incubating it at 25° C. for 40 min. • 10) Reading the RLU (Relative luminescence unit) signal using a Biotek multifunctional plate reader. The signal intensity was used to characterize the activity degree of kinase.
(§4) The IC50 (half inhibition concentration) of a compound was obtained using the following non-linear fitting equation, wherein data analysis was performed using Graphpad 6.0 software.
(§5) Y=Bottom+(Top−Bottom)/(1+10^((Log IC50−X)*Hill Slope)) • X: log value of compound concentration; and Y: inhibition rate (% inhibition)
(§6) Data were exported from Biotek and analyzed manually. The ratios were converted to inhibition rates and IC50 was calculated by Prism GraphPad 6.0 from the inhibition rates. IC50 was calculated again by the ratios to verify accuracy of the results.
(In ADP-Glo the light output rises with the ADP produced.)

Experiment [2] concerns the target T2, TRKB (Homo sapiens, UniProt Q16620).
T2 construct: purchased SignalChem N17-11G
As to the kind of experiment: Determination of inhibitory activity against TRKB kinase (ADP-Glo Kinase Assay). The settings on record: ATP 20 μM, Poly (4:1 Glu, Tyr) Peptide 0.03 mg/ml. The method, then:
as §1, §2, §3, §4, §5, §6

Experiment [3] addresses T3, TRKC (Homo sapiens, UniProt Q16288).
T3 construct: purchased Carna 08-196
As to the kind of experiment: Determination of inhibitory activity against TRKC kinase (ADP-Glo Kinase Assay). The settings on record: ATP 5 μM, Poly (4:1 Glu, Tyr) Peptide 0.03 mg/ml. The procedure: as §1, §2, §3, §4, §5, §6

T3 sequence (Q16288 32-839): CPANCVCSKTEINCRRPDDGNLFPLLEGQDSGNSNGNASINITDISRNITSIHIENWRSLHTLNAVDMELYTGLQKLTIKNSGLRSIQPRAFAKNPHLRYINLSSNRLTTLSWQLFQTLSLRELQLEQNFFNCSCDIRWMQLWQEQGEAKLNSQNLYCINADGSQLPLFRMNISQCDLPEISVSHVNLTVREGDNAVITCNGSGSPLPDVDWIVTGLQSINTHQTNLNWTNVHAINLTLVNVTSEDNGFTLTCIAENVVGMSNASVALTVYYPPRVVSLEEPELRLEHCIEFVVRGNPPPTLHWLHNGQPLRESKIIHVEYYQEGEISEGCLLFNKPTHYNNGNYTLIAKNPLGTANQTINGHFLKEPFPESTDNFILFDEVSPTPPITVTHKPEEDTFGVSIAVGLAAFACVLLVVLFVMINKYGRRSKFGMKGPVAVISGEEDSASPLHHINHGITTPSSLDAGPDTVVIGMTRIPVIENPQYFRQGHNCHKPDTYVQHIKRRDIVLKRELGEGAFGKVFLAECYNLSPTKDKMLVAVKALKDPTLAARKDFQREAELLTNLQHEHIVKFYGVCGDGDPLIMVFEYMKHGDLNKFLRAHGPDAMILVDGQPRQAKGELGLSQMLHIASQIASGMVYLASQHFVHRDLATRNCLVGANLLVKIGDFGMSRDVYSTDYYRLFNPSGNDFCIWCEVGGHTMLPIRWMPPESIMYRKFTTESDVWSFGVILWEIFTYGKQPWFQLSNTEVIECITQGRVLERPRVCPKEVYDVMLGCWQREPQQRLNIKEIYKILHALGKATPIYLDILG
T1 sequence (P04629 33-796): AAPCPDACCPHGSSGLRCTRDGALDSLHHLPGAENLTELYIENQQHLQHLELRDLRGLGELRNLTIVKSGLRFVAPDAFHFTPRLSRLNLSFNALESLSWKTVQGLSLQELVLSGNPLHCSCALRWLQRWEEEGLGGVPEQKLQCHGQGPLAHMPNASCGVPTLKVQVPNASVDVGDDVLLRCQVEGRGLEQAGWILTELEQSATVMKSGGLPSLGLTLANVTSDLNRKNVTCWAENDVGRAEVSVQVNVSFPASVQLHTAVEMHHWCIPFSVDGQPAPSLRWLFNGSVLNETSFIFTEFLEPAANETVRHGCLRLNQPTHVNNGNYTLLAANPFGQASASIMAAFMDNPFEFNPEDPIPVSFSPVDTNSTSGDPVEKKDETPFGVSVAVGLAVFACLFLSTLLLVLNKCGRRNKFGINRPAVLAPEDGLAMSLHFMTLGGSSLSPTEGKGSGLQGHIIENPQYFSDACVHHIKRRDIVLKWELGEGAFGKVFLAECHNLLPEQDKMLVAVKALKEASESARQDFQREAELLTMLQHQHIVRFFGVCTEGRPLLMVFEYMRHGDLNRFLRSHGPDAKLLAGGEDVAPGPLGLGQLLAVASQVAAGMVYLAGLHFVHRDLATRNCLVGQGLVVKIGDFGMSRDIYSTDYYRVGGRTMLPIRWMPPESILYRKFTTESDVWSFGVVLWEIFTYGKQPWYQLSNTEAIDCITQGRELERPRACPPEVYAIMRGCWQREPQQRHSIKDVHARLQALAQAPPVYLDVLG
T2 sequence (Q16620 32-822): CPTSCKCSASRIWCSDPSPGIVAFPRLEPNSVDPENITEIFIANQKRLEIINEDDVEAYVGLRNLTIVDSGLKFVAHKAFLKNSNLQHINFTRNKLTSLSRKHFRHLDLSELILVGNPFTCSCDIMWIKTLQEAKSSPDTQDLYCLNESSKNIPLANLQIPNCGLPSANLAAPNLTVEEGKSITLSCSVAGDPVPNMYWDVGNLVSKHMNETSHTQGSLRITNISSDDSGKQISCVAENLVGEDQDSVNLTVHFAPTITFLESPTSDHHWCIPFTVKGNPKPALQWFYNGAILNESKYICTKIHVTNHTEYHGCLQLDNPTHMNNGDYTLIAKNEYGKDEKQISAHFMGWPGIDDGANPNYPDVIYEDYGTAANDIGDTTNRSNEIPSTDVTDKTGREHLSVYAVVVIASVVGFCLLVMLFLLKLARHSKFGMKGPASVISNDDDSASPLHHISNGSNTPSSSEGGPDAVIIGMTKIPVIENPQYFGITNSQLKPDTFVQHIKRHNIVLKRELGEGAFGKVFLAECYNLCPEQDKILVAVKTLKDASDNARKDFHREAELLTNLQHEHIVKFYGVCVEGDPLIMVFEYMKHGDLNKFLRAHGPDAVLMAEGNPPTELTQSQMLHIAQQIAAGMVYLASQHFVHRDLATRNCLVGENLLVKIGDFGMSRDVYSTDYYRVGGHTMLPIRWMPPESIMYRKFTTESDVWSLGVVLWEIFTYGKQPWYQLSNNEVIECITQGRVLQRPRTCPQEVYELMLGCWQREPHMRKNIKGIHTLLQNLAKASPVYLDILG

With `CC(Oc1ccc2[nH]nc(-c3nc4c([nH]3)CN(CC3CCCN3)C4)c2c1)c1cc(F)cc(F)c1` (stereo not drawn) [Example 42, 5-(1-(3,5-Difluorophenyl)ethoxy)-3-(5-(pyrrolidin-2-ylmethyl)-1,4,5,6-tetrahydropyrrolo[3,4-d]imidazol-2-yl)-1H-indazole], the IC50 – broadly, the midpoint of a concentration-inhibition curve – worked out at 1 nM in experiment [1], 1.1 nM in experiment [2] and 1.5 nM in experiment [3].

Regarding `CC(Oc1ccc2[nH]nc(-c3nc4c([nH]3)CN(CCN(C)C)C4)c2c1)c1cc(F)cc(F)c1` (stereo not drawn) [Example 18, 2-(2-(5-(1-(3,5-Difluorophenyl)ethoxy)-1H-indazol-3-yl)-4,6-dihydropyrrolo[3,4-d]imidazol-5(1H)-yl)-N,N-dimethyl ethan-1-amine], the IC50 is 0.8 nM in experiment [1], 1.1 nM in experiment [2] and 1.5 nM in experiment [3].

Turning to `CCN1CCCC(N2Cc3nc(-c4n[nH]c5ccc(OC(C)c6cc(F)cc(F)c6)cc45)[nH]c3C2)C1` (stereo not drawn) [Example 43, 5-(1-(3,5-Difluorophenyl)ethoxy)-3-(5-(1-ethylpiperidin-3-yl)-1,4,5,6-tetrahydropyrrolo[3,4-d]imidazol-2-yl)-1H indazole], the figures for the IC50 in experiment [1], in experiment [2] and in experiment [3] were 1.9 nM, 1.4 nM and 2.9 nM, respectively.

Take `CC(Oc1ccc2[nH]nc(-c3nc4c([nH]3)CN(CC3(C)CCN(C(C)C)CC3)C4)c2c1)c1cc(F)cc(F)c1` (stereo not drawn) [Example 28]: the IC50 in experiment [1] was 0.53 nM; in experiment [2] it was 3.9 nM; in experiment [3] it was 1.4 nM.

As for `CC(Oc1ccc2[nH]nc(-c3nc4c([nH]3)CN(CC3CCN(C)C3)C4)c2c1)c1cc(F)cc(F)c1` (stereo not drawn) [Example 20], the IC50 stood at 1.5 nM in experiment [1], 4 nM in experiment [2] and 2.9 nM in experiment [3].

In the case of `CCN1CCC(N2Cc3nc(-c4n[nH]c5ccc(OC(C)c6cc(F)cc(F)c6)cc45)[nH]c3C2)CC1` (stereo not drawn) [Example 38, 5-(1-(3,5-Difluorophenyl)ethoxy)-3-(5-(1-ethylpiperidin-4-yl)-1,4,5,6-tetrahydropyrrolo[3,4-d]imidazol-2-yl)-1H indazole], the figures for the IC50 in experiment [1], in experiment [2] and in experiment [3] were 4.1 nM, 1.9 nM and 3.6 nM, respectively.

As to `CC(Oc1ccc2[nH]nc(-c3nc4c([nH]3)CN(C3CC5(C3)CN(C)C5)C4)c2c1)c1cc(F)cc(F)c1` (stereo not drawn) [Example 39, 5-(1-(3,5-Difluorophenyl)ethoxy)-3-(5-(2-methyl-2-azaspiro[3.3]heptan-6-yl)-1,4,5,6-tetrahydropyrrolo[3,4-d]imidazol-2-yl)-1H-indazole], the values for the IC50 in experiment [1], in experiment [2] and in experiment [3] were 6.8 nM, 1 nM and 2.3 nM, respectively.

`Fc1cc(F)cc(CNc2ccc3[nH]nc(-c4nc5c([nH]4)CN(CC4CCNCC4)C5)c3c2)c1` [Example 2, N-(3,5-difluorobenzyl)-3-(5-(piperidin-4-ylmethyl)-1,4,5,6-tetrahydropyrrolo[3,4-d]imidazol-2-yl)-1H-indazol-5-amine]: the IC50 in experiment [1] is 3.5 nM; in experiment [2], 3.4 nM; in experiment [3], 3.3 nM.

Take `CC(Oc1ccc2[nH]nc(-c3nc4c([nH]3)CN(C(=O)OC3CCN(C)CC3)C4)c2c1)c1cc(F)cc(F)c1` (stereo not drawn) [Example 10, 1-Methylpiperidin-4-yl-2-(5-(1-(3,5-difluorophenyl)ethoxy)-1H-indazol-3-yl)-4,6-dihydropyrrolo[3,4-d]imidazole-5(1H)-carboxylate]: the IC50 in experiment [1] turned out to be 0.77 nM; in experiment [2] it was 2.5 nM; in experiment [3], 1.3 nM.

With `CC(Oc1ccc2[nH]nc(-c3nc4c([nH]3)CN(CC3CCN(C5CCC5)CC3)C4)c2c1)c1cc(F)cc(F)c1` (stereo not drawn) [Example 27, 3-(5-((1-Cyclobutylpiperidin-4-yl)methyl)-1,4,5,6-tetrahydropyrrolo[3,4-d]imidazol-2-yl)-5-(1-(3,5-difluorophenyl)ethoxy)-1H-indazole], the IC50 in experiment [1] came out at 0.42 nM; in experiment [2], 3.1 nM; in experiment [3] it was 3.5 nM.

With `CN1CCC(N2Cc3nc(-c4n[nH]c5ccc(Cc6cc(F)cc(F)c6)cc45)[nH]c3C2)CC1` [Example 14, 5-(3,5-Difluorobenzyl)-3-(5-(1-methylpiperidin-4-yl)-1,4,5,6-tetrahydropyrrolo[3,4-d]imidazol-2-yl)-1H-indazole], the IC50 came out at 3.5 nM in experiment [1], 9.5 nM in experiment [2] and 11.5 nM in experiment [3].

On to `CC(Oc1ccc2[nH]nc(-c3nc4c([nH]3)CN(C3CCCC(N(C)C)C3)C4)c2c1)c1cc(F)cc(F)c1` (stereo not drawn) [Example 45, 3-(2-(5-(1-(3,5-difluorophenyl)ethoxy)-1H-indazol-3-yl)-4,6-dihydropyrrolo[3,4-d]imidazol-5(1H)-yl)-N,N-dimethyl cyclohexan-1-amine], for which the IC50 turned out to be 1.6 nM in experiment [1], 0.83 nM in experiment [2] and 1.7 nM in experiment [3].

Consider `CC(Oc1ccc2[nH]nc(-c3nc4c([nH]3)CN(CC3CCCCN3)C4)c2c1)c1cc(F)cc(F)c1` (stereo not drawn) [Example 25, 5-(1-(3,5-Difluorophenyl)ethoxy)-3-(5-(piperidin-2-ylmethyl)-1,4,5,6-tetrahydropyrrolo[3,4-d]imidazol-2-yl)-1H-indazole], for which the IC50 was found to be 1.8 nM in experiment [1], 6.8 nM in experiment [2] and 1.6 nM in experiment [3].

For `CC(Oc1ccc2[nH]nc(-c3nc4c([nH]3)CN(C3CCN(C)C3)C4)c2c1)c1cc(F)cc(F)c1` (stereo not drawn) [Example 41, 5-(1-(3,5-Difluorophenyl)ethoxy)-3-(5-(1-methylpyrrolidin-3-yl)-1,4,5,6-tetrahydropyrrolo[3,4-d]imidazol-2-yl)-1H indazole], the figures for the IC50 in experiment [1], in experiment [2] and in experiment [3] were 7.4 nM, 3 nM and 7.7 nM, respectively.

As for `CC(Oc1ccc2[nH]nc(-c3nc4c([nH]3)CN(CC3CCN(C)CC3)C4)c2c1)c1cc(F)cc(F)c1` (stereo not drawn) [Example 15], the IC50 in experiment [1] was 0.75 nM; in experiment [2], 0.65 nM; in experiment [3], 0.86 nM.

`CC(Oc1ccc2[nH]nc(-c3nc4c([nH]3)CN(CC3CN(C)C3)C4)c2c1)c1cc(F)cc(F)c1` (stereo not drawn) [Example 26, 5-(1-(3,5-Difluorophenyl)ethoxy)-3-(5-((1-methylazetidin-3-yl)methyl)-1,4,5,6-tetrahydropyrrolo[3,4-d]imidazol-2-yl)-1H-indazole]: the figures for the IC50 in experiment [1], in experiment [2] and in experiment [3] were 2.8 nM, 5.5 nM and 2 nM, respectively.

Turning to `CC(Nc1ccc2[nH]nc(-c3nc4c([nH]3)CN(CC3CCNCC3)C4)c2c1)c1cc(F)cc(F)c1` (stereo not drawn) [Example 11, N-(1-(3,5-difluorophenyl)ethyl)-3-(5-(piperidin-4-ylmethyl)-1,4,5,6-tetrahydropyrrolo[3,4-d]imidazol-2-yl)-1H-indazol-5-amine], the IC50 in experiment [1] was 1.4 nM; in experiment [2], 2.2 nM; in experiment [3], 2.4 nM.

Consider `CC(Oc1ccc2[nH]nc(-c3nc4c([nH]3)CN(C(=O)N(C)C)C4)c2c1)c1cc(F)cc(F)c1` (stereo not drawn) [Example 5, 2-(5-(1-(3,5-difluorophenyl)ethoxy)-1H-indazol-3-yl)-N,N-dimethyl-4,6-dihydropyrrolo[3,4-d]imidazole-5(1H) formamide], for which the figures for the IC50 in experiment [1], in experiment [2] and in experiment [3] were 2.3 nM, 2.1 nM and 3.1 nM, respectively.

As to `C[C@@H](Oc1ccc2[nH]nc(-c3nc4c([nH]3)CN(CC3CCN(C)CC3)C4)c2c1)c1cc(F)cc(F)c1` [Example 32], the IC50 in experiment [1] came to 0.23 nM; in experiment [2], 0.63 nM; in experiment [3], 0.43 nM.
